According to US10112926B2 (priority 2014, dated 2018):
Where a name gives a salt, the structure may show the parent alone.

Experiments:
Vps34 = Vps34 (Homo sapiens (Human), UniProt Q8NEB9); details: read-out: Assay C VPS34 IC50
PI 4-kinase beta = PI 4-kinase beta (Homo sapiens (Human), UniProt Q9UBF8); details: read-out: Assay D PI4Kβ IC50
PI 4-kinase beta, sequence (Q9UBF8 whole entry): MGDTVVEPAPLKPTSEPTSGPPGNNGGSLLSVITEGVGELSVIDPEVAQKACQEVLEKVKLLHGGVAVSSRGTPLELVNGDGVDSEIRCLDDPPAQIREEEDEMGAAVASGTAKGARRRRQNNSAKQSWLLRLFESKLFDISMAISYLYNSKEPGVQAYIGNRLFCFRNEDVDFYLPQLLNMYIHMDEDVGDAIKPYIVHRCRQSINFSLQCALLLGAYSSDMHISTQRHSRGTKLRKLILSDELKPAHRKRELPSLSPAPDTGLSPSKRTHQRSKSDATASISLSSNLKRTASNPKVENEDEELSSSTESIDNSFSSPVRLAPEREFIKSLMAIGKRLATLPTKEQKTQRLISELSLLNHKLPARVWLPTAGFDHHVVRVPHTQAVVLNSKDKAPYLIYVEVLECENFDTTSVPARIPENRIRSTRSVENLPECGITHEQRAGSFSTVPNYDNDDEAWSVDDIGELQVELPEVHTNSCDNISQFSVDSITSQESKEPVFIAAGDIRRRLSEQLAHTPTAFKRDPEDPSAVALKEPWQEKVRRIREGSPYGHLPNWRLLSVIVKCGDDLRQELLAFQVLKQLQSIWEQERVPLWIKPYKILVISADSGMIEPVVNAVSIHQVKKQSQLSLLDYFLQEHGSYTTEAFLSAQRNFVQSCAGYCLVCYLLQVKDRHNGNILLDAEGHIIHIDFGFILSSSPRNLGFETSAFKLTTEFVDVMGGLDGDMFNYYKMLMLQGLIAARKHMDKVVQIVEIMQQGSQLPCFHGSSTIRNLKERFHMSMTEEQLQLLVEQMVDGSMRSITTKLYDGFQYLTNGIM

Vps34, sequence (Q8NEB9 whole entry): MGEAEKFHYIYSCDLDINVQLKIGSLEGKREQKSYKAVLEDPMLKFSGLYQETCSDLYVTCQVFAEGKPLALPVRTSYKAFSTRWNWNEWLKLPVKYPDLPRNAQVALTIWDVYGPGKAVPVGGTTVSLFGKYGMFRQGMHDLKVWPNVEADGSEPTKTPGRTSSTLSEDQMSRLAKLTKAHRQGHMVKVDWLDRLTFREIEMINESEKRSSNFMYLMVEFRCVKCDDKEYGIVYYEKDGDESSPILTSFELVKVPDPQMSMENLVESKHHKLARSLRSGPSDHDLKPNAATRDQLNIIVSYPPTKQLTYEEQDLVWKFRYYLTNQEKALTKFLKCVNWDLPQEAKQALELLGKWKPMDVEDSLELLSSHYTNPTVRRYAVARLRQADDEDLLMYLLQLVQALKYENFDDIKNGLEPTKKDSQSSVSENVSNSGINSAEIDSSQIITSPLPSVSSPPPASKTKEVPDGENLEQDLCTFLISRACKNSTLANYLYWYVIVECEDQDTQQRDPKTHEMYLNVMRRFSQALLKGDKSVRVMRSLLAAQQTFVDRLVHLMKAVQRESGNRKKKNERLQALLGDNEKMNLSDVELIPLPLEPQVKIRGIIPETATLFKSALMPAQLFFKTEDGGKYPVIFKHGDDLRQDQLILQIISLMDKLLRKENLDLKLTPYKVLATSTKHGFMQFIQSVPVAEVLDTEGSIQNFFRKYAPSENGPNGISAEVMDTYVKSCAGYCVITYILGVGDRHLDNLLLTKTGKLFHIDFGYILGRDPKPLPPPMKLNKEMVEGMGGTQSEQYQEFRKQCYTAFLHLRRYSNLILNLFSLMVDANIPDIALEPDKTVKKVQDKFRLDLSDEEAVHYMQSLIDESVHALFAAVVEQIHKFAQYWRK

Row | SMILES | IC50 (Vps34) [µM] | IC50 (PI 4-kinase beta) [µM]
1 | Cc1ccc(S(=O)(=O)NCCC(C)(C)O)cc1-c1cnc(N)c(-c2cnn(CC(F)(F)F)c2)c1 [Example 3, 3-(6-Amino-5-(1-(2,2,2-trifluoroethyl)-1H-pyrazol-4-yl)pyridin-3-yl)-N-(3-hydroxy-3-methylbutyl)-4-methylbenzenesulfonamide] | > 9.1 | 1.08
2 | Cc1noc(-c2cc(-c3cc(S(=O)(=O)NCC(C)(C)O)ccc3C)cnc2N)n1 [Example 10, 3-(6-Amino-5-(3-methyl-1,2,4-oxadiazol-5-yl)pyridin-3-yl)-N-(2-hydroxy-2-methylpropyl)-4-methylbenzenesulfonamide, hydrochloride salt] | > 9.8 | > 9.8
3 | Cc1cc(-c2cc(-c3cc(S(=O)(=O)NC4CCOC4=O)ccc3C)cnc2N)on1 (stereo not drawn) [Example 19.2, 3-(6-amino-5-(3-methylisoxazol-5-yl)pyridin-3-yl)-4-methyl-N-(2-oxotetrahydrofuran-3-yl)benzene sulfonamide trifluoroacetic acid salt] | > 10 | 3.7
4 | Cc1cc(-c2cc(-c3cc(S(=O)(=O)NCCC4CCOCC4)ccc3C)cnc2N)on1 [Example 19.12, 3-(6-amino-5-(3-methylisoxazol-5-yl)pyridin-3-yl)-4-methyl-N-(2-(tetrahydro-2H-pyran-4-yl)ethyl)benzenesulfon-amide trifluoroacetic acid salt] | > 10 | 4.3
5 | Cc1cc(-c2cc(-c3cc(S(=O)(=O)N[C@@H](C)C4CC4)ccc3C)cnc2N)on1 [Example 19.13, (S)-3-(6-amino-5-(3-methylisoxazol-5-yl)pyridin-3-yl)-N-(1-cyclopropylethyl)-4-methylbenzenesulfon-amide trifluoroacetic acid salt] | > 10 | 1.6
6 | Cc1cc(-c2cc(-c3cc(S(=O)(=O)N[C@H]4CCC[C@H](O)C4)ccc3C)cnc2N)on1 [Example 19.16, 3-(6-amino-5-(3-methylisoxazol-5-yl)pyridin-3-yl)-N-((1S,3S)-3-hydroxycyclohexyl)-4-methylbenzenesulfon-amide trifluoroacetic acid salt] | > 10 | 1.5
7 | COCC1CCN(S(=O)(=O)c2ccc(C)c(-c3cnc(N)c(-c4cc(C)no4)c3)c2)CC1 [Example 19.18, 5-(5-((4-(methoxymethyl)piperidin-1-yl)sulfonyl)-2-methylphenyl)-3-(3-methylisoxazol-5-yl)pyridin-2-amine trifluoroacetic acid salt] | – | 3.8
8 | COC[C@@H]1COCCN1S(=O)(=O)c1ccc(C)c(-c2cnc(N)c(-c3cc(C)no3)c2)c1 [Example 19.20, (R)-5-(5-((3-(methoxymethyl)morpho-lino)sulfonyl)-2-methylphenyl)-3-(3-methylisoxazol-5-yl)pyridin-2-amine trifluoroacetic acid salt] | – | 4.2
9 | Cc1cc(-c2cc(-c3cc(S(=O)(=O)NCC4COC4)ccc3C)cnc2N)on1 [Example 25, 3-(6-Amino-5-(3-methylisoxazol-5-yl)pyridin-3-yl)-4-methyl-N-(oxetan-3-ylmethyl)benzenesulfonamide] | > 10 | 1.3
10 | Cc1cc(-c2cc(-c3cc(S(=O)(=O)NCC4(CO)CCOCC4)ccc3C)cnc2N)on1 [Example 37.1, 3-(6-Amino-5-(3-methylisoxazol-5-yl)pyridin-3-yl)-N-((4-(hydroxymethyl)tetrahydro-2H-pyran-4-yl)methyl)-4-methylbenzenesulfonamide] | – | 3.5
11 | Cc1noc(-c2cc(-c3cc(S(=O)(=O)NC[C@H]4CCCO4)ccc3C)cnc2N)n1 [Example 37.5, (R)-3-(6-Amino-5-(3-methyl-1,2,4-oxadiazol-5-yl)pyridin-3-yl)-4-methyl-N-((tetrahydrofuran-2-yl)methyl)benzenesulfonamide] | – | 8
12 | COC1(C)CN(S(=O)(=O)c2ccc(C)c(-c3cnc(N)c(-c4cc(C)no4)c3)c2)C1 [Example 37.20, 5-(5-((3-Methoxy-3-methylazetidin-yl)sulfonyl)-2-methylphenyl)-3-(3-methylisoxazol-5-yl)pyridin-2-amine] | – | 5.1
13 | Cc1noc(-c2cc(-c3cc(S(=O)(=O)NC(CO)C4CCOC4)ccc3C)cnc2N)n1 (stereo not drawn) [Example 37.21, 3-(6-Amino-5-(3-methyl-1,2,4-oxadiazol-5-yl)pyridin-3-yl)-N-(2-hydroxy-1-(tetrahydrofuran-3-yl)ethyl)-4-methylbenzenesulfonamide] | – | > 10
14 | Cc1noc(-c2cc(-c3cc(S(=O)(=O)N4CC[C@H](O)C4)ccc3C)cnc2N)n1 [Example 37.32, (S)-1-((3-(6-Amino-5-(3-methyl-1,2,4-oxadiazol-5-yl)pyridin-3-yl)-4-methylphenyl)sulfonyl)pyrrolidin-3-ol hydrochloride] | – | 8.5
15 | Cc1noc(-c2cc(-c3cc(S(=O)(=O)NC4CCN(C(C)C)CC4)ccc3C)cnc2N)n1 [Example 37.34, 3-(6-Amino-5-(3-methyl-1,2,4-oxadiazol-5-yl)pyridin-3-yl)-N-(1-isopropylpiperidin-4-yl)-4-methylbenzenesulfonamide] | – | > 10
16 | Cc1noc(-c2cc(-c3cc(S(=O)(=O)NCC(C)(F)F)ccc3C)cnc2N)n1 [Example 37.38, 3-(6-Amino-5-(3-methyl-1,2,4-oxadiazol-5-yl)pyridin-3-yl)-N-(2,2-difluoropropyl)-4-methylbenzenesulfonamide] | – | 7.5
17 | Cc1ccc(S(=O)(=O)NCC(C)(C)O)cc1-c1cnc(N)c(-c2cc(C(=O)N3CCOCC3)no2)c1 [Example 42, 3-(6-Amino-5-(3-(morpholine-4-carbonyl)isoxazol-5-yl)pyridin-3-yl)-N-(2-hydroxy-2-methylpropyl)-4-methylbenzenesulfonamide] | – | 2.9
18 | CONS(=O)(=O)c1ccc(C)c(-c2cnc(N)c(-c3nc(C)no3)c2)c1 [Example 46, 3-(6-Amino-5-(3-methyl-1,2,4-oxadiazol-5-yl)pyridin-3-yl)-N-methoxy-4-methylbenzenesulfonamide] | – | > 10
19 | Cc1ccc(S(=O)(=O)NCC(C)(C)O)cc1-c1cnc(N)c(-c2ccn(C)c2)c1 [Example 58, 3-(6-Amino-5-(1-methyl-1H-pyrrol-3-yl)pyridin-3-yl)-N-(2-hydroxy-2-methylpropyl)-4-methylbenzenesulfonamide hydrochloride] | – | 3.2
20 | Cc1noc(-c2cc(-c3cc(S(N)(=O)=O)ccc3C)cnc2N)n1 [Example 75, 3-(6-Amino-5-(3-methyl-1,2,4-oxadiazol-5-yl)pyridin-3-yl)-4-methylbenzenesulfonamide] | – | > 10
21 | Cc1ncc(-c2cc(-c3cc(S(=O)(=O)NCC(C)(C)CO)ccc3C)cnc2N)o1 [Example 104.2, 3-(6-amino-5-(2-methyloxazol-5-yl)pyridin-3-yl)-N-(3-hydroxy-2,2-dimethylpropyl)-4-methylbenzenesulfon-amide] | – | 1.1
22 | Cc1ncc(-c2cc(-c3cc(S(=O)(=O)NCCO)ccc3C)cnc2N)o1 [Example 104.5, 3-(6-amino-5-(2-methyloxazol-5-yl)pyridin-3-yl)-N-(2-hydroxyethyl)-4-methylbenzenesulfon-amide] | – | 3.1
23 | Cc1ncc(-c2cc(-c3cc(S(=O)(=O)NCC4CC4)ccc3C)cnc2N)o1 [Example 104.12, 3-(6-amino-5-(2-methyloxazol-5-yl)pyridin-3-yl)-N-(cyclopropylmethyl)-4-methylbenzenesulfon-amide] | – | 2.1
